From patent publication US6121241A, “Anticoagulant peptide aldehyde derivatives” (Gyogyszerkutato Intezet Kft., priority 1996, dated 2000)
Where two headings read alike, the source gives them in different places.

How the values were obtained:
Type in all cases: biochemical
urokinase (UK) = urokinase (UK) (Homo sapiens, UniProt P00749); assay: Fibrin-plate method, plasmin formation induced by urokinase; details: for IC50: fibrin-plate method, hydrolyzed area reduced by 50%
Text: The inhibitory effect of the new compounds of the invention on plasmin (PL) as well as on plasmin formation induced by tissue plasminagen activator (tPA) and urokinase (UK) was studied by the […] [D. Bagdy et al.; Thromb. Haemost. 67, 325 (1992)]. Compounds C1 and C3 served as controls. […] V. Jackson et al., J. Cardiovasc. Pharmacol. 21, 587 (1993)].
^a IC50 = peptide concentration (mM) where the hydrolyzed area o
the fibrin plate is reduced by 50% compared to the control

[1] = test system: citrate plasma coagulation (PT); assay: Prothrombin time (PT) plasma clotting test
Method: (§1) Anticoagutant activity (i.e. inhibition of the proteolytic reactions in the process) is measured by anticoagulant tests, e.g. by the thrombin time (TT), activated partial thromboplastin time (APTT) and prothrombin time (PT) tests [E. J. W. Bovie et al; Mayo Clinic Laboratory Manual of Hemostasis; W. B. Sanuders Co., Philadelphia (1971)]. Plasma, inhibited in spontaneous coagulation, e.g. citrate-plasma, is made to coagulate and the required coagulation time is measured. Upon the action of anticoagulants the coagulation time is prolonged proportionally to the inhibition of the reaction(s) in the process. The anticoagulant effect can be characterized by the substance concentration required to double the coagulation time compared to the control (IC50). The effect of anticoagulants on individual coagulant proteases is measured by the amidolytic method [R. Lottenberg et al., Methods in Enzymol. 80, 341 (1981); G. Cleason, Blood Coagulation and Fibrinolysis 5, 411 (1994)]. The isolated active factor (e.g. thrombin, fXa) and its chromogen or fluorogen peptide-amide substrate are reacted in the presence or absence of the inhibitor, resp. The enzyme inhibiting action is characterized by the inhibitory constant (IC50) measured during amidolysis.
(§2) In the TT test coagulation is initiated by the thrombin added to the citrate plasma. In the system 22 pmol/mL of thrombin is functioning and in the presence of plasma components its inhibition can be measured on the fibrinogen (one of the natural substrates of thrombin) present In the APTT and PT tests the full coagulation process is made to proceed. Depending on the activator fX is activated by the extrinsic or intrinsic pathway. The generated fXa activates prothrombin to thrombin which, in turn, triggers plasma coagulation. In the test the coagulation time is prolonged if the enzymes or one of them is inhibited by the inhibitor. In the APTT and PT tests at most 40 pmole/ml Xa is generated (this is the full amount of factor X present in both systems) while 150 pmole/ml (APTT) and 350 pmole/ml (PT) are generated from thrombin [B Kaiser et al., Thromb. Res. 65, 157 (1992)].
(§3) The in vitro anticoagulant effect of the compounds of general formula (I) was measured by the prothrombin time (PT), activated partial thromboplastin time (APTT) and thrombin time (TT) tests [D. Bagdy et at., Thromb. Haemost. 67, 325 (1992)]. The Xa-factor-inhibiting effect of the compounds was also determined by using the Bz-Ile-Glu-Gly-Arg-pNA chromogen substrate (see method M6).

[2] = target: T1, fibrin-gel bound thrombin (Homo sapiens, UniProt P00734); assay: Inhibition of thrombin bound to fibrin-gel (methods M4, M5); details: Tos-Gly-Pro-Arg-pNA substrate
T1 construct: Here prothrombin is converted to thrombin; purchased SIGMA
Method: The plasma clot was obtained by the recalcification of platelet-rich human citrate plasma and fibrin gel by the coagulation of human fibrinogen with human thrombin Z-D-Arg-Gly-Arg-pNA and Tos Gly-Pro-Arg-pNA were used as substrates for measuring the activity of factor Xa and thrombin (methods M1-M5).
Preparation of Fibrin-Gel
a) 200 μL of 6 mg/mL human fibrinogen (SIGMA), 25 μL of 25 NIH U/mL human thrombin (SIGMA) and 40 μL of 100 mM calcium chloride solution are placed in each reaction vessel and the mixtures are stored for one hour at 20-22° C. The fibrin formed is rinsed mildly with 3×2 ml of isotonic saline solution followed by sedimentation to remove the thrombin content of the solution. The efficacy of rinsing is controlled by the process described in Method M1, point c).
Assay of the Inhibition of Thrombin Bound to Fibrin-Gel
a) 0.1-1.0-10 and 100 μg/ml solutions are prepared with Hepes/NaCl buffer (0.01 M Hepes and 0.1 M sodium chloride, pH=7.4).
b) Thereafter the procedure described in Method M3, point b) is followed.

human factor Xa = target: T2, human factor Xa (Homo sapiens, UniProt P00742); assay: Inhibition of the amidolytic effect of factor Xa in solution on Bz-Ile-Glu-Gly-Arg-pNA (method M6); details: Table 2; Bz-Ile-Glu-Gly-Arg-pNA, isolated human factor Xa; read-out: B: IC50 (factor Xa inhibiting effect)
T2 construct: purchased SIGMA
Method: as §1, §3
Assay of the Inhibition of Factor Xa in Solution on a 96-well Microtiter Plate
a) 1.3 U/mL factor Xa (human, SIGMA), 0.1-1.0-10 and 100 μg/mL solutions in phosphate buffer (0.1 M sodium phosphate and 0.05 M sodium chloride, pH 7.4) of the peptide inhibitors and […] solutions of the substrate Bz-Ile-Glu-Gly-Arg-pNA in distilled water are used.
b) Three reaction mixtures are prepared from the control and each peptide solution. 30 μL each of the peptide and the buffer, serving as control, 30 μL factor Xa, 90 μL butter and 150 μL substrate are placed in the wells of the plate, then after 10 minutes the extinction values are read at 405 nm The procedure is continued as described in Method M2, point c).

[3] = test system: citrate plasma coagulation (APTT); assay: Activated partial thromboplastin time (APTT) plasma clotting test
Method: as §1, §2, §3

[4] = Table 2, concentration doubling clotting time, read-out: A: IC50, PT

T2 sequence (P00742 235-488 limits assumed): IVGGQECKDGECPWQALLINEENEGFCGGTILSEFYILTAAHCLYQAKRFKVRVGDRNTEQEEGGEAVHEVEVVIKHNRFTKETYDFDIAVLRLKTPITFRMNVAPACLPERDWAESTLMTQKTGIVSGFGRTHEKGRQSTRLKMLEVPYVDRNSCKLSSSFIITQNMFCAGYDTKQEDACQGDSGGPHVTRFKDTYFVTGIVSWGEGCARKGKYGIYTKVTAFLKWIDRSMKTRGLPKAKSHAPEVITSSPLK
T2 sequence (P00742 41-179 partner limits assumed): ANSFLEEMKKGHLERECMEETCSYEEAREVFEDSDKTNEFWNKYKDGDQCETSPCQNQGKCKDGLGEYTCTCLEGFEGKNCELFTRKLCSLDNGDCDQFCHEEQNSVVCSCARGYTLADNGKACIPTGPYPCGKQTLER

| SMILES | B: relative efficacy, UK (urokinase (UK)) | IC50 (urokinase (UK)) | times lower activity than compound C3, third enzyme (UK) (urokinase (UK); versus C3 of Table 4) | IC50 [1, 4] | IC50 [2] | IC50 (human factor Xa) | IC50 ([3]; Table 2, concentration doubling clotting time, read-out: A: IC50, APTT) | B: relative efficacy, UK (urokinase (UK); related to the activity of C1 (1/IC50 = 1)) | IC50 ([1]; read-out: concentration doubling the clotting time in the PT test) | IC50 ([3]; read-out: concentration doubling the clotting time in the APTT test) |
| --- | --- | --- | --- | --- | --- | --- | --- | --- | --- | --- |
| N=C(N)NCCC[C@@H](C=O)NC(=O)[C@H]1CCCN1C(=O)C(O)C1CCCCCC1.N=C(N)NCCC[C@@H](C=O)NC(=O)[C@H]1CCCN1C(=O)C(O)C1CCCCCC1.O=S(=O)(O)O (stereo partly drawn) [Compound 1, D-2-Cycloheptyl-2-hydroxyacetyl-L-prolyl-L-arginine aldehyde hemisulfate] | 0.7 | 120 µM | 39 | 1.2 µM | 0.21 µM | 0.063 µM | 0.37 µM | – | – | – |
| CN[C@H](Cc1ccccc1)C(=O)N1CCC[C@H]1C(=O)N[C@H](C=O)CCCNC(=N)N [Compound C1, D-MePhe-Pro-Arg-H] | – | 82 µM | – | 2.92 µM | 0.3 µM | 9.13 µM | – | 1.0 | 2.92 µM | 0.622 µM |
